In general, IC50 refers to the concentration at which inhibition is half-maximal.

This test concerns the target T1, human HSL (Homo sapiens, UniProt Q05469).
T1 construct: overlapping PCR to generate a full length human HSL ORF with a 3′-His6 tag; His6 (C); made in house; host or cells: High 5 insect cells (baculovirus, pFast-BAC)
T1 sequence (Q05469 1-1076): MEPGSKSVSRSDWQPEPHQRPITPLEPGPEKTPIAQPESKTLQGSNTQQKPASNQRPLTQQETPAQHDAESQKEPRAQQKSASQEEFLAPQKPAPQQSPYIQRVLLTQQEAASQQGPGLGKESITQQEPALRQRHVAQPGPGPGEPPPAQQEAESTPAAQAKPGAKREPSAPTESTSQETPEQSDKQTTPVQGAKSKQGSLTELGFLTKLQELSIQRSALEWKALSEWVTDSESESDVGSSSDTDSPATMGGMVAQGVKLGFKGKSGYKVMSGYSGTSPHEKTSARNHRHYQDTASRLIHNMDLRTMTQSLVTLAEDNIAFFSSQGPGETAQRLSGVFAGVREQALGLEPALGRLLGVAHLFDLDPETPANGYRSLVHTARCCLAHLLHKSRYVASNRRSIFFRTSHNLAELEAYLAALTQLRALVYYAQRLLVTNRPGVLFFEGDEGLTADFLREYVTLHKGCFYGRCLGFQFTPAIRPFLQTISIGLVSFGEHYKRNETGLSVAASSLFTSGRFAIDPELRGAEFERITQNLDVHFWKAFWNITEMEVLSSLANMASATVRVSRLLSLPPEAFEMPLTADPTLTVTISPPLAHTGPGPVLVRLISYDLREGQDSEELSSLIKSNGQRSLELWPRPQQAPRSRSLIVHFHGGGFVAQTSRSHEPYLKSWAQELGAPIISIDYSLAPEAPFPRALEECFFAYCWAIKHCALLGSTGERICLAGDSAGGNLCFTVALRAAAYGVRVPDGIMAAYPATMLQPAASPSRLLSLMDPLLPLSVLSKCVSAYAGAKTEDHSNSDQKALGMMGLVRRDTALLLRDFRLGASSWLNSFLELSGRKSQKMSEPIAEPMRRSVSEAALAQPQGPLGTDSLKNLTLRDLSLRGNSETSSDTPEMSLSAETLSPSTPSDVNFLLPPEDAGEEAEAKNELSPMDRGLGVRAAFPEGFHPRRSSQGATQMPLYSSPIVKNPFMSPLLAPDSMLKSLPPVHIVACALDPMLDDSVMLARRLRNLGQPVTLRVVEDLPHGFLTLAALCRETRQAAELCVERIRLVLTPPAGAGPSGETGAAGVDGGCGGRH
Briefly: Human Hormone-Sensitive Lipase (HSL) Enzyme Inhibition Assay. The note with it: colorimetric assay, 2,3-dimercapto-1-propanol tributyrate (DMPT) substrate, 37° C. for 20 minutes, absorbance at 405 nm; read-out: HSL hum IC50. The test is classed as biochemical. The method, boiled down: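 Colorimetric thioester hydrolysis: compounds in DMSO series mixed with DMPT (1.5 mM) in MOPS pH 7.2 with BSA, then baculovirus-expressed His6-tagged full-length human HSL added, 37° C, 20 min. DTNB plus detergents added, 15 min room temperature, absorbance at 405 nm.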
In the case of `Cc1ccc(S(=O)(=O)N2CCC3(CCN(c4ccc(OS(C)(=O)=O)cc4)C3=O)CC2)s1` [Example 50, Methanesulfonic acid 4-[8-(5-methyl-thiophene-2-sulfonyl)-1-oxo-2,8-diaza-spiro[4.5]dec-2-yl]-phenyl ester], the IC50 turned out to be 60 nM. For the compound `CS(=O)(=O)c1ccccc1S(=O)(=O)N1CCC2(CCN(c3ccc(OC(F)(F)F)cc3)C2=O)CC1` [Example 51, 8-(2-Methanesulfonyl-benzenesulfonyl)-2-(4-trifluoromethoxy-phenyl)-2,8-diaza-spiro[4.5]decan-1-one], the IC50 stood at 140 nM. As to `CCc1ccc(N2CCC3(CCN(S(=O)(=O)c4ccccc4S(C)(=O)=O)CC3)C2=O)cc1` [Example 52, 2-(4-Ethyl-phenyl)-8-(2-methanesulfonyl-benzenesulfonyl)-2,8-diaza-spiro[4.5]decan-1-one], the IC50 worked out at 210 nM. With `CC(C)(C)CS(=O)(=O)N1CCC2(CCN(c3ccc(OS(C)(=O)=O)cc3)C2=O)CC1` [Example 53, Methanesulfonic acid 4-[8-(2,2-dimethyl-propane-1-sulfonyl)-1-oxo-2,8-diaza-spiro[4.5]dec-2-yl]-phenyl ester], the IC50 came to 110 nM. Consider `CCc1ccc(N2CCC3(CCN(S(=O)(=O)c4ccccc4OC(F)(F)F)CC3)C2=O)cc1` [Example 54, 2-(4-Ethyl-phenyl)-8-(2-trifluoromethoxy-benzenesulfonyl)-2,8-diaza-spiro[4.5]decan-1-one], for which the IC50 was found to be 30 nM. Under `O=C1N(c2ccc(OC(F)(F)F)cc2)CCC12CCN(S(=O)(=O)c1ccccc1OC(F)(F)F)CC2` [Example 55, 8-(2-Trifluoromethoxy-benzenesulfonyl)-2-(4-trifluoromethoxy-phenyl)-2,8-diaza-spiro[4.5]decan-1-one] stands 20 nM.

In the case of `CS(=O)(=O)Oc1ccc(N2CCC3(CCN(S(=O)(=O)c4ccccc4OC(F)(F)F)CC3)C2=O)cc1` [Example 56, Methanesulfonic acid 4-[1-oxo-8-(2-trifluoromethoxy-benzenesulfonyl)-2,8-diaza-spiro[4.5]dec-2-yl]-phenyl ester], the IC50 was 20 nM.

On to `CCCc1ccc(N2CCC3(CCN(S(=O)(=O)c4ccccc4S(C)(=O)=O)CC3)C2=O)cc1` [Example 57, 8-(2-Methanesulfonyl-benzenesulfonyl)-2-(4-propyl-phenyl)-2,8-diaza-spiro[4.5]decan-1-one], for which the IC50 is 140 nM. As to `CCCc1ccc(N2CCC3(CCN(S(=O)(=O)c4ccccc4OC(F)(F)F)CC3)C2=O)cc1` [Example 58, 2-(4-Propyl-phenyl)-8-(2-trifluoromethoxy-benzenesulfonyl)-2,8-diaza-spiro[4.5]decan-1-one], the IC50 stood at 40 nM. Under `CS(=O)(=O)Oc1ccc(N2CCC3(CCN(S(=O)(=O)c4cccs4)CC3)C2=O)cc1` [Example 59, Methanesulfonic acid 4-[1-oxo-8-(thiophene-2-sulfonyl)-2,8-diaza-spiro[4.5]dec-2-yl]-phenyl ester] stands 30 nM. The result for `CC(C)CS(=O)(=O)N1CCC2(CCN(c3ccc(CC(F)(F)F)cc3)C2=O)CC1` [Example 60, 8-(2-Methyl-propane-1-sulfonyl)-2-[4-(2,2,2-trifluoro-ethyl)-phenyl]-2,8-diaza-spiro[4.5]decan-1-one] reads 40 nM; that for `CCC(C)c1ccc(N2CCC3(CCN(S(=O)(=O)CC(C)C)CC3)C2=O)cc1` (stereo not shown) [Example 61, 2-(4-sec-Butyl-phenyl)-8-(2-methyl-propane-1-sulfonyl)-2,8-diaza-spiro[4.5]decan-1-one], 70 nM. Consider `CC(C)CS(=O)(=O)N1CCC2(CCN(c3ccc(OS(C)(=O)=O)cc3)C2=O)CC1` [Example 62, Methanesulfonic acid 4-[8-(2-methyl-propane-1-sulfonyl)-1-oxo-2,8-diaza-spiro[4.5]dec-2-yl]-phenyl ester], for which the 50% inhibitory concentration (IC50) is 250 nM. Under `CC(C)CS(=O)(=O)N1CCC2(CCN(c3ccc(OCC(F)(F)F)cc3)C2=O)CC1` [Example 63, 8-(2-Methyl-propane-1-sulfonyl)-2-[4-(2,2,2-trifluoro-ethoxy)-phenyl]-2,8-diaza-spiro[4.5]decan-1-one] stands 210 nM; under `CC(C)CS(=O)(=O)N1CCC2(CCN(c3ccc(OS(=O)(=O)C4CC4)cc3)C2=O)CC1` [Example 64, Cyclopropanesulfonic acid 4-[8-(2-methyl-propane-1-sulfonyl)-1-oxo-2,8-diaza-spiro[4.5]dec-2-yl]-phenyl ester], 220 nM.

With `CC(C)CS(=O)(=O)N1CCC2(CCN(c3ccc(C4CC4)cc3)C2=O)CC1` [Example 65, 2-(4-Cyclopropyl-phenyl)-8-(2-methyl-propane-1-sulfonyl)-2,8-diaza-spiro[4.5]decan-1-one], the IC50 amounted to 100 nM.

On to `CC(C)CS(=O)(=O)N1CCC2(CCN(c3ccc(OC4CCCC4)cc3)C2=O)CC1` [Example 66, 2-(4-Cyclopentyloxy-phenyl)-8-(2-methyl-propane-1-sulfonyl)-2,8-diaza-spiro[4.5]decan-1-one], for which the IC50 came to 160 nM. Consider `CCc1ccc(N2CCC3(CCN(S(=O)(=O)c4ccccc4C(F)(F)F)CC3)C2=O)cc1` [Example 67, 2-(4-Ethyl-phenyl)-8-(2-trifluoromethyl-benzenesulfonyl)-2,8-diaza-spiro[4.5]decan-1-one], for which the IC50 stood at 60 nM. With `O=C1N(c2ccc(OC(F)(F)F)cc2)CCC12CCN(S(=O)(=O)c1ccccc1C(F)(F)F)CC2` [Example 68, 2-(4-Trifluoromethoxy-phenyl)-8-(2-trifluoromethyl-benzenesulfonyl)-2,8-diaza-spiro[4.5]decan-1-one], the concentration for half-maximal inhibition (IC50) stood at 40 nM.

For `CCc1ccc(N2CCC3(CCN(S(=O)(=O)c4ccc(C(F)(F)F)cc4Cl)CC3)C2=O)cc1` [Example 69, 8-(2-Chloro-4-trifluoromethyl-benzenesulfonyl)-2-(4-ethyl-phenyl)-2,8-diaza-spiro[4.5]decan-1-one], the IC50 turned out to be 310 nM. Under `O=C1N(c2ccc(OC(F)(F)F)cc2)CCC12CCN(S(=O)(=O)c1ccc(C(F)(F)F)cc1Cl)CC2` [Example 70, 8-(2-Chloro-4-trifluoromethyl-benzenesulfonyl)-2-(4-trifluoromethoxy-phenyl)-2,8-diaza-spiro[4.5]decan-1-one] stands 140 nM; under `O=C1N(c2ccc(C3CC3)cc2)CCC12CCN(S(=O)(=O)c1ccccc1C(F)(F)F)CC2` [Example 71, 2-(4-Cyclopropyl-phenyl)-8-(2-trifluoromethyl-benzenesulfonyl)-2,8-diaza-spiro[4.5]decan-1-one], 80 nM; under `O=C1N(c2ccc(C3CC3)cc2)CCC12CCN(S(=O)(=O)c1ccc(F)cc1C(F)(F)F)CC2` [Example 72, 2-(4-Cyclopropyl-phenyl)-8-(4-fluoro-2-trifluoromethyl-benzenesulfonyl)-2,8-diaza-spiro[4.5]decan-1-one], 110 nM. `O=C1N(c2ccc(CC(F)(F)F)cc2)CCC12CCN(S(=O)(=O)c1ccccc1C(F)(F)F)CC2` [Example 73, 2-[4-(2,2,2-Trifluoro-ethyl)-phenyl]-8-(2-trifluoromethyl-benzenesulfonyl)-2,8-diaza-spiro[4.5]decan-1-one]: the IC50 was 80 nM.

As to `CCc1ccc(N2CCC3(CCN(S(=O)(=O)c4ccccc4I)CC3)C2=O)cc1` [Example 74, 2-(4-Ethyl-phenyl)-8-(2-iodo-benzenesulfonyl)-2,8-diaza-spiro[4.5]decan-1-one], the IC50 is 200 nM.
